# Test results as given in patent US7108865B2, “Controlled-release dosage forms of azithromycin” (Pfizer Inc, priority 1994, dated 2006).
# How the values were obtained:
# Type in all cases: in vivo, human
# [1] = Visual Analogue Scale gastrointestinal side effects after 2 hr intravenous infusion (Example 3); parameters: key to Mean Cumulative Score (Visual Analogue Scale), abdominal pain / Mean Cumulative Score (Visual Analogue Scale), nausea / Mean Cumulative Score (Visual Analogue Scale), regurgitation / Mean Cumulative Score (Visual Analogue Scale), abdominal cramping: sum over 240 h of 0–10 VAS severity scores, averaged per subject; conditions: not corrected for placebo effects; for Incidence of Visual-Analogue-Scale score >1, abdominal cramping / Incidence of Visual-Analogue-Scale score >1, abdominal pain / Incidence of Visual-Analogue-Scale score >1, nausea / Incidence of Visual-Analogue-Scale score >1, regurgitation / Incidence of Visual-Analogue-Scale score >4, abdominal cramping / Incidence of Visual-Analogue-Scale score >4, abdominal pain / Incidence of Visual-Analogue-Scale score >4, nausea / Incidence of Visual-Analogue-Scale score >4, regurgitation: any time during 240 hour post-dose; for Mean Cumulative Score (Visual Analogue Scale), abdominal cramping / Mean Cumulative Score (Visual Analogue Scale), abdominal pain / Mean Cumulative Score (Visual Analogue Scale), nausea / Mean Cumulative Score (Visual Analogue Scale), regurgitation: entire 240 hour post-dose period
# Protocol: Healthy male subjects were divided into four groups. Group A received a 2 hr intravenous infusion of a placebo solution (0 g azithromycin). Group B received a 2 hr intravenous infusion of a 1 g dose of azithromycin. Group C received a 2 hr intravenous infusion of a 2 g dose of azithromycin. Group D received a 2 hr intravenous infusion of a 4 g dose of azithromycin. […] All subjects were dosed after an overnight fast.
# (§1) Prior to dosing and each blood sampling time, each subject filled out a questionnaire, which consisted of a series of “Visual Analogue Scales” in which the subject was required to rate, on a scale of 0–10, the severity of certain potential side effects. The subjects were instructed that “0” indicated an absent effect and “10” indicated the worst possible effect. The subjects were instructed to interpolate between 0 and 10 for moderate side effects.
# (§2) Analysis of side effect visual-analogue-scale data was carried out in two formats. In the first format (Table VIII), the analysis concentrated on the general incidence of side effects of a particular type. For each side effect type (e.g., abdominal pain), Table VIII reports the number of subjects who reported a score >1 at any time during the 240 hr post-dosing, and the number of subjects who reported a score >4 at any time during the 240 hr post-dosing. This analysis assumes that all scores >4 represent a real side effect occurrence, however mild or severe. A score >4 is presumed to reflect a moderate-to-severe side effect occurrence.
# In the second format (Table IX), the analysis reflects the general severity and duration of side effects. For a particular side effect (e.g., Abdominal Pain) in a particular subject, all visual-analogue-scale scores (over the 240 hr post-dose period) were summed to give a “cumulative score” over the entire time period of evaluation. “Cumulative scores” for all members of a treatment group were summed, and divided by the number of subjects in the group, to a give a Mean Cumulative Score. […] Table IX presents Mean Cumulative Scores for abdominal pain, nausea, regurgitation, and abdominal cramping.
# [2] = Recovery of azithromycin in ileostomy fluid after IV infusion in ileostomy subjects; conditions: 500 mg IV infusion over 1 hr, twelve ileostomy subjects, 24 hr following dose
# Excerpt: A 2.0 g intravenous azithromycin dose is equivalent to a 5.4 g oral azithromycin dose, from the standpoint of equivalent systemic drug exposure. At an even higher intravenous dose, a higher side effect incidence is observed. While GI side effects can be elicited by high intravenous doses, these observations are consistent with the statement that azithromycin GI side effects are mediated by direct contact of the drug with the intestinal wall in the lumen, based upon the following additional study. Twelve ileostomy subjects were administered an IV infusion of 500 mg azithromycin over 1 hr. Serum was collected predose and at 0.17, 0.33, 0.5, 1, 2, 4, 8, 12, 24, 48, 72, 96, 120, and 144 hr following initiation, of the infusion. In addition, the contents of the subjects' ileostomy bags were collected for the following intervals: 12 hr predose, 0–6 hr post-dose, 6–12 hr post-dose, and 12–24 hr post-dose. The serum and ileostomy fluid concentrations of azithromycin were assayed. […] Thus it is not surprising that high intravenous doses of azithromycin can cause gastrointestinal side effects, since a portion of the IV dose partitions into the lumen of the small intestine.
# [3] = Visual Analogue Scale gastrointestinal side effects after duodenal or ileocecal dosing (Example 2); conditions: for Incidence of Visual-Analogue-Scale score >1, abdominal cramping / Incidence of Visual-Analogue-Scale score >1, abdominal pain / Incidence of Visual-Analogue-Scale score >1, nausea / Incidence of Visual-Analogue-Scale score >1, regurgitation / Incidence of Visual-Analogue-Scale score >4, abdominal cramping / Incidence of Visual-Analogue-Scale score >4, abdominal pain / Incidence of Visual-Analogue-Scale score >4, nausea / Incidence of Visual-Analogue-Scale score >4, regurgitation: any time during 96 hour post-dose, subjects reporting/total; for Mean Cumulative Score (Visual Analogue Scale), abdominal cramping / Mean Cumulative Score (Visual Analogue Scale), abdominal pain / Mean Cumulative Score (Visual Analogue Scale), nausea / Mean Cumulative Score (Visual Analogue Scale), regurgitation: entire 96 hour post-dose period
# Protocol: Healthy male subjects were divided into two groups. […] All subjects were dosed after an overnight fast.
# as §1
# as §2, with “(Table V),” for “(Table VIII),”, “Table V” for “Table VIII”, “the 96” for “the 240”, “scores >1” for “scores >4”
# In the second format (Table VI), the analysis reflects the general severity and duration of side effects. For a particular side effect (e.g., Abdominal Pain) in a particular subject, all visual-analogue-scale scores (over the 96 hr post-dose period) were summed to give a “cumulative score” over the entire time period of evaluation. “Cumulative scores” for all members of a treatment group were summed, and divided by the number of subjects in the group, to give a Mean Cumulative Score. […] Table VI presents Mean Cumulative Scores for abdominal pain, nausea, regurgitation, and abdominal cramping.
# [4] = 2 g directly into the ileocecal region
# [5] = 2 g solution directly into the duodenum, n 5
# [6] = 2 g solution directly into the ileocecal region, n 6
smiles,measurement,setting,value
"CC[C@H]1OC(=O)[C@H](C)[C@@H](O[C@H]2C[C@@](C)(OC)[C@@H](O)[C@H](C)O2)[C@H](C)[C@@H](O[C@@H]2O[C@H](C)C[C@H](N(C)C)[C@H]2O)[C@](C)(O)C[C@@H](C)CN(C)[C@H](C)[C@@H](O)[C@]1(C)O [azithromycin, 9a-aza-9a-methyl-9-deoxo-9a-homoerythromycin A]","Incidence of Visual-Analogue-Scale score >1, abdominal cramping",[1]; 1 g IV over 2 hr,0/5
same,"Incidence of Visual-Analogue-Scale score >1, abdominal pain",[1]; 1 g IV over 2 hr,1/5
same,"Incidence of Visual-Analogue-Scale score >1, nausea",[1]; 1 g IV over 2 hr,0/5
same,"Incidence of Visual-Analogue-Scale score >1, regurgitation",[1]; 1 g IV over 2 hr,0/5
same,"Incidence of Visual-Analogue-Scale score >4, abdominal cramping",[1]; 1 g IV over 2 hr,0/5
same,"Incidence of Visual-Analogue-Scale score >4, abdominal pain",[1]; 1 g IV over 2 hr,0/5
same,"Incidence of Visual-Analogue-Scale score >4, nausea",[1]; 1 g IV over 2 hr,0/5
same,"Incidence of Visual-Analogue-Scale score >4, regurgitation",[1]; 1 g IV over 2 hr,0/5
same,"Mean Cumulative Score (Visual Analogue Scale), abdominal cramping","[1]; 1.0 g IV, n 6",0.5
same,"Mean Cumulative Score (Visual Analogue Scale), abdominal pain","[1]; 1.0 g IV, n 6",1.5
same,"Mean Cumulative Score (Visual Analogue Scale), nausea","[1]; 1.0 g IV, n 6",0
same,"Mean Cumulative Score (Visual Analogue Scale), regurgitation","[1]; 1.0 g IV, n 6",0
same,"Incidence of Visual-Analogue-Scale score >1, abdominal cramping",[1]; 2 g IV over 2 hr,1/6
same,"Incidence of Visual-Analogue-Scale score >1, abdominal pain",[1]; 2 g IV over 2 hr,2/6
same,"Incidence of Visual-Analogue-Scale score >1, nausea",[1]; 2 g IV over 2 hr,4/6
same,"Incidence of Visual-Analogue-Scale score >1, regurgitation",[1]; 2 g IV over 2 hr,1/6
same,"Incidence of Visual-Analogue-Scale score >4, abdominal cramping",[1]; 2 g IV over 2 hr,1/6
same,"Incidence of Visual-Analogue-Scale score >4, abdominal pain",[1]; 2 g IV over 2 hr,1/6
same,"Incidence of Visual-Analogue-Scale score >4, nausea",[1]; 2 g IV over 2 hr,2/6
same,"Incidence of Visual-Analogue-Scale score >4, regurgitation",[1]; 2 g IV over 2 hr,0/6
same,"Mean Cumulative Score (Visual Analogue Scale), abdominal cramping","[1]; 2.0 g IV, n 6",3.8
same,"Mean Cumulative Score (Visual Analogue Scale), abdominal pain","[1]; 2.0 g IV, n 6",5.7
same,"Mean Cumulative Score (Visual Analogue Scale), nausea","[1]; 2.0 g IV, n 6",13.2
same,"Mean Cumulative Score (Visual Analogue Scale), regurgitation","[1]; 2.0 g IV, n 6",0.5
same,"Incidence of Visual-Analogue-Scale score >1, abdominal cramping",[1]; 4 g IV over 2 hr,4/5
same,"Incidence of Visual-Analogue-Scale score >1, abdominal pain",[1]; 4 g IV over 2 hr,4/5
same,"Incidence of Visual-Analogue-Scale score >1, nausea",[1]; 4 g IV over 2 hr,3/5
same,"Incidence of Visual-Analogue-Scale score >1, regurgitation",[1]; 4 g IV over 2 hr,1/5
same,"Incidence of Visual-Analogue-Scale score >4, abdominal cramping",[1]; 4 g IV over 2 hr,2/5
same,"Incidence of Visual-Analogue-Scale score >4, abdominal pain",[1]; 4 g IV over 2 hr,0/5
same,"Incidence of Visual-Analogue-Scale score >4, nausea",[1]; 4 g IV over 2 hr,2/5
same,"Incidence of Visual-Analogue-Scale score >4, regurgitation",[1]; 4 g IV over 2 hr,1/5
same,"Mean Cumulative Score (Visual Analogue Scale), abdominal cramping","[1]; 4.0 g IV, n 5",11.8
same,"Mean Cumulative Score (Visual Analogue Scale), abdominal pain","[1]; 4.0 g IV, n 5",12.8
same,"Mean Cumulative Score (Visual Analogue Scale), nausea","[1]; 4.0 g IV, n 5",10.6
same,"Mean Cumulative Score (Visual Analogue Scale), regurgitation","[1]; 4.0 g IV, n 5",3.8
same,dose recovered intact in the ileostomy fluid,[2],13%
same,"Incidence of Visual-Analogue-Scale score >1, abdominal cramping",[3]; 2 g directly into the duodenum,5/5
same,"Incidence of Visual-Analogue-Scale score >1, abdominal pain",[3]; 2 g directly into the duodenum,4/5
same,"Incidence of Visual-Analogue-Scale score >1, nausea",[3]; 2 g directly into the duodenum,2/5
same,"Incidence of Visual-Analogue-Scale score >1, regurgitation",[3]; 2 g directly into the duodenum,3/5
same,"Incidence of Visual-Analogue-Scale score >4, abdominal cramping",[3]; 2 g directly into the duodenum,0/5
same,"Incidence of Visual-Analogue-Scale score >4, abdominal pain",[3]; 2 g directly into the duodenum,0/5
same,"Incidence of Visual-Analogue-Scale score >4, nausea",[3]; 2 g directly into the duodenum,1/5
same,"Incidence of Visual-Analogue-Scale score >4, regurgitation",[3]; 2 g directly into the duodenum,0/5
same,"Incidence of Visual-Analogue-Scale score >1, abdominal cramping",[3]; [4],2/6
same,"Incidence of Visual-Analogue-Scale score >1, abdominal pain",[3]; [4],2/6
same,"Incidence of Visual-Analogue-Scale score >1, nausea",[3]; [4],2/6
same,"Incidence of Visual-Analogue-Scale score >1, regurgitation",[3]; [4],0/6
same,"Incidence of Visual-Analogue-Scale score >4, abdominal cramping",[3]; [4],0/6
same,"Incidence of Visual-Analogue-Scale score >4, abdominal pain",[3]; [4],0/6
same,"Incidence of Visual-Analogue-Scale score >4, nausea",[3]; [4],0/6
same,"Incidence of Visual-Analogue-Scale score >4, regurgitation",[3]; [4],0/6
same,"Mean Cumulative Score (Visual Analogue Scale), abdominal cramping",[3]; [5],13.2
same,"Mean Cumulative Score (Visual Analogue Scale), abdominal pain",[3]; [5],13.4
same,"Mean Cumulative Score (Visual Analogue Scale), nausea",[3]; [5],11.6
same,"Mean Cumulative Score (Visual Analogue Scale), regurgitation",[3]; [5],7.2
same,"Mean Cumulative Score (Visual Analogue Scale), abdominal cramping",[3]; [6],3.3
same,"Mean Cumulative Score (Visual Analogue Scale), abdominal pain",[3]; [6],2.7
same,"Mean Cumulative Score (Visual Analogue Scale), nausea",[3]; [6],2.0
same,"Mean Cumulative Score (Visual Analogue Scale), regurgitation",[3]; [6],0
